# Measured values: ChEMBL document CHEMBL1201862, “PubChem BioAssay data set” (2004)
# Activity calls are given as the source filed them.
# Assays:
# [1] = cells; format: functional, cell-based
# [2] = cells; format: functional, cell-based; remark: listed apart in the source
# [3] = molecular target: Photoreceptor-specific nuclear receptor (Homo sapiens, UniProt Q9Y5X4); format: functional, cell-based;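 also: CHO-S cells with Gal4-NCOR and VP16-NR2E3 two-hybrid luciferase reporter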
# [4] = C. albicans growth with fluconazole, confirmation, fluorescence, retest (AID 2467); format: functional, cell-based
# [5] = NIH-3T3 fibroblast cytotoxicity, dose response, cytotoxicity control, cell-based, fluorescence, Alamar Blue, secondary assay (AID 2327); format: functional;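 also: NIH-3T3 mouse fibroblasts cultured with fluconazole at 8 µg/mL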
# [6] = molecular target: Prothrombin (Bos taurus, UniProt P00735); assay: thrombin inhibition, dose response, biochemical, fluorescence polarization, uHTS hits (AID 602369); format: functional
# [7] = molecular target: T1, Serine/threonine-protein phosphatase (Candida dubliniensis (strain CD36 / CBS 7987 / NCPF 3949 / NRRLY-17841) (Yeast), UniProt B9W6M3); assay: calcineurin pathway inhibitors in yeast reporter, dose response, S. cerevisiae, CDRE-lacZ, luminescence, secondary (AID 2388); format: functional, cell-based;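 also: yeast reporter cells carrying a calcineurin-responsive lacZ construct stimulated with calcium chloride; luminescent beta-galactosidase reporter signal in whole cells rather than isolated phosphatase activity; potency for inhibition where a drop in reporter signal means calcineurin blockade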
# T1 sequence (B9W6M3 whole entry): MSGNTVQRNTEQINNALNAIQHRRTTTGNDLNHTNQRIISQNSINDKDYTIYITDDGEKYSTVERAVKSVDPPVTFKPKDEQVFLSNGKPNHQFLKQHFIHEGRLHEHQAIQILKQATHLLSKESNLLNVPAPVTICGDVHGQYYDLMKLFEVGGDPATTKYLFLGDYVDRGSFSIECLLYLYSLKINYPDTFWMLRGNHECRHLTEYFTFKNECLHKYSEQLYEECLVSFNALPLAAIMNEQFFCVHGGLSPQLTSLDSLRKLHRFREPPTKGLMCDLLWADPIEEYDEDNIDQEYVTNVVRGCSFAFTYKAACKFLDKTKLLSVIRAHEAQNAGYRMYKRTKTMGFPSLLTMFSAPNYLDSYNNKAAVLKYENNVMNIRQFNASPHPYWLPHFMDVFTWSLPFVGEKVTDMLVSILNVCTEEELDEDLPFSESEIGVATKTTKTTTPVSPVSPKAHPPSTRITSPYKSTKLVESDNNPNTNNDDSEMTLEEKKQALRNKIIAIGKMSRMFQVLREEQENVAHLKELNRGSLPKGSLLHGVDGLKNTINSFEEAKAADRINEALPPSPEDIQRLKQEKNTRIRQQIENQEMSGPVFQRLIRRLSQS
# [8] = molecular target: 72 kDa type IV collagenase (Homo sapiens, UniProt P08253); assay: Dose Response validation of uHTS RPN11 inhibitor hits using a MMP-2 Fluorescence assay.; format: functional
# [9] = molecular target: ATP-dependent molecular chaperone HSP82 (Candida albicans (strain WO-1) (Yeast), UniProt C4YTQ8); assay: loss of DOC-induced GRE-beta-galactosidase reporter signal, dose response, Hsp90 inhibitor project, S. cerevisiae, luminescence (AID 2400); format: functional, cell-based;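 also: beta-galactosidase luminescence from glucocorticoid response element reporter as proxy for Hsp90 function; inhibitor potency where signal loss means Hsp90 inhibition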
# [10] = molecular target: Nonstructural protein 1 (Influenza A virus, UniProt Q194T2); format: functional, Influenza A virus (A/California/07/2009(H1N1))
# [11] = molecular target: 26S proteasome non-ATPase regulatory subunit 14 (Homo sapiens, UniProt O00487); assay: inhibition of proteasome subunit RPN11 – biochemical, fluorescence polarization, uHTS hits, confirmation (AID 602368); format: functional
# [12] = HepG2 cell cytotoxicity, dose response, cytotoxicity control, ATP luminescence, cherry-pick, activator set 2 (AID 1053143); format: functional, cell-based
# [13] = molecular target: T2, Sentrin-specific protease 1 (Homo sapiens, UniProt Q9P0U3); assay: Dose response confirmation of small molecule inhibitors of the catalytic domain of the SUMO protease, SENP1 in a FRET assay.; format: functional; details: read-out: IC50_Mean
# T2 sequence (Q9P0U3 whole entry): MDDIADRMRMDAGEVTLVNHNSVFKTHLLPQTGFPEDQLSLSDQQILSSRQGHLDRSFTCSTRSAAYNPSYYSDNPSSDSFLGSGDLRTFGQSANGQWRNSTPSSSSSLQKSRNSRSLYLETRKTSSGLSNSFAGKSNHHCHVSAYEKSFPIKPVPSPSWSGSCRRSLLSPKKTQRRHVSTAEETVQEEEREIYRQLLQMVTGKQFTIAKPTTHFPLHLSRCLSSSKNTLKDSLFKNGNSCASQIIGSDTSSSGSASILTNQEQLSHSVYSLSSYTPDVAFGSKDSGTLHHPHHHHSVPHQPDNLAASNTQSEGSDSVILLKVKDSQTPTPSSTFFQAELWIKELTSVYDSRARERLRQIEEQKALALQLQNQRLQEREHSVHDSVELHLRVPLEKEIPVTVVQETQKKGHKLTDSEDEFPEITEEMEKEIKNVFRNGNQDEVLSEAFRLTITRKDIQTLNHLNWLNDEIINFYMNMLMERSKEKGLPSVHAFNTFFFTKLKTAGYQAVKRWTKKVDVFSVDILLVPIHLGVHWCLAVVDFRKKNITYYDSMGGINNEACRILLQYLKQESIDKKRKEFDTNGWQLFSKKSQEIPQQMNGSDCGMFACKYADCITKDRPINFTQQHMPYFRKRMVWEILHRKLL
# [14] = molecular target: T2, Sentrin-specific protease 1; assay: potency of human SENP1 inhibitors, dose response, biochemical, kinetic FRET (AID 651697); format: functional; details: read-out: IC50_Mean
# [15] = inhibitors of SNCA 5'UTR-driven reporter translation, confirmation, H4 neuroglioma cells, luminescence (AID 1988); format: functional, cell-based
# [16] = Luminescence Cell-Based Dose Response HTS to Identify Inhibitors of 5'UTR Stem-Loop Driven Prion Protein mRNA Translation in H4 Neuroglioblastoma Cells. [Related pubchem assays: 1827 (Project Summary), 1813 (Primary HTS)]; format: functional
# [17] = molecular target: Nuclear receptor subfamily 0 group B member 1 (Homo sapiens, UniProt P51843); format: functional, cell-based;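 also: HEK293T cells transfected with SF-1 and DAX-1 plus StAR promoter luciferase reporter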
# [18] = cells; format: functional, cell-based; remark: listed apart in the source
# [19] = HepG2 cell cytotoxicity, dose response, cytotoxicity control for Shn3 inhibitor project, CellTiter-Glo, cherry-picked (AID 624134); format: functional, cell-based
# [20] = molecular target: Protein Wnt-3a (Mus musculus, UniProt P27467); assay: Wnt3a-driven reporter signaling inhibition, dose response, selectivity assay for Gli-SUFU antagonist project, Wnt-LIGHT cells, luminescence (AID 651570); format: functional; details: read-out: IC50_Mean;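 also: Wnt-LIGHT reporter cells stimulated with conditioned medium from Wnt3a-producing cells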
# [21] = control 3'UTR Renilla luciferase suppression, dose response, counter-screen for Shn3 inhibitor project, cell-based, Clone20-Shn3RL, cherry-picked (AID 624133); format: functional
# [22] = Luminescence Cell-Based Dose Response HTS to Identify Activators of Luciferase Translation or Activity in H4 […] Cells. [Related pubchem assays: 1829 (Project Summary), 1814 (Primary HTS)]; format: functional
# [23] = system: H4; assay: Luminescence Cell-Based Dose Response HTS to Identify Activators of 5'UTR Stem-Loop Driven Prion Protein mRNA Translation in H4 Neuroglioblastoma Cells. [Related pubchem assays: 1829 (Project Summary), 1814 (Primary HTS)]; format: functional; details: Homo sapiens
# Chain of Photoreceptor-specific nuclear receptor (Q9Y5X4 whole entry, the tested form may be a part): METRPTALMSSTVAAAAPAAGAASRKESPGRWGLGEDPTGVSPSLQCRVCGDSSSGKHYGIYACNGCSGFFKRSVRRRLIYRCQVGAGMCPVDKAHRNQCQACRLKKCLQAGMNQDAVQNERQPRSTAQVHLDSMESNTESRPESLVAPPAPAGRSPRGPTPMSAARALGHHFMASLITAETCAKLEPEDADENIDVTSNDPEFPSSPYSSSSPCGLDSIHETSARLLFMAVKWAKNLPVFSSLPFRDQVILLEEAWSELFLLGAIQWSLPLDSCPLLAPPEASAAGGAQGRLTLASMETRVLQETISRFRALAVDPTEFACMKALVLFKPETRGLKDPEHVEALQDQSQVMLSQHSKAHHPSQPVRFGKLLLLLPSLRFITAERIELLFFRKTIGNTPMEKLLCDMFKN
# Chain of 72 kDa type IV collagenase (P08253 whole entry): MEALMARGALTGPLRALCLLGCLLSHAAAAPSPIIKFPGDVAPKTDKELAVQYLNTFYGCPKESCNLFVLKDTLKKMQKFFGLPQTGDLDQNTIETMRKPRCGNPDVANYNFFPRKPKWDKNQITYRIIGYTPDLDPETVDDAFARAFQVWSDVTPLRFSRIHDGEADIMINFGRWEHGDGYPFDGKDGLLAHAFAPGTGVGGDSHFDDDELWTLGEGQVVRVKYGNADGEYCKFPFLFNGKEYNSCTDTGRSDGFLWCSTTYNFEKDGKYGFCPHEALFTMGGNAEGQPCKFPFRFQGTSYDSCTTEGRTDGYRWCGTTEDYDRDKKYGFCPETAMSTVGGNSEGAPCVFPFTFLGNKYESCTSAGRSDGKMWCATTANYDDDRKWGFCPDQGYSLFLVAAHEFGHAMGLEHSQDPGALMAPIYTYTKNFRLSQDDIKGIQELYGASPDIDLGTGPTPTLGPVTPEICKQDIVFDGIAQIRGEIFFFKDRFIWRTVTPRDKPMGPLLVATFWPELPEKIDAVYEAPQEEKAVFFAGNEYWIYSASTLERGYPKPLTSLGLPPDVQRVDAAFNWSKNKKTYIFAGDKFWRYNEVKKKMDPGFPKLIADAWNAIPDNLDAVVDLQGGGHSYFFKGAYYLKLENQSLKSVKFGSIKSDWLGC
# Chain of ATP-dependent molecular chaperone HSP82 (C4YTQ8 whole entry): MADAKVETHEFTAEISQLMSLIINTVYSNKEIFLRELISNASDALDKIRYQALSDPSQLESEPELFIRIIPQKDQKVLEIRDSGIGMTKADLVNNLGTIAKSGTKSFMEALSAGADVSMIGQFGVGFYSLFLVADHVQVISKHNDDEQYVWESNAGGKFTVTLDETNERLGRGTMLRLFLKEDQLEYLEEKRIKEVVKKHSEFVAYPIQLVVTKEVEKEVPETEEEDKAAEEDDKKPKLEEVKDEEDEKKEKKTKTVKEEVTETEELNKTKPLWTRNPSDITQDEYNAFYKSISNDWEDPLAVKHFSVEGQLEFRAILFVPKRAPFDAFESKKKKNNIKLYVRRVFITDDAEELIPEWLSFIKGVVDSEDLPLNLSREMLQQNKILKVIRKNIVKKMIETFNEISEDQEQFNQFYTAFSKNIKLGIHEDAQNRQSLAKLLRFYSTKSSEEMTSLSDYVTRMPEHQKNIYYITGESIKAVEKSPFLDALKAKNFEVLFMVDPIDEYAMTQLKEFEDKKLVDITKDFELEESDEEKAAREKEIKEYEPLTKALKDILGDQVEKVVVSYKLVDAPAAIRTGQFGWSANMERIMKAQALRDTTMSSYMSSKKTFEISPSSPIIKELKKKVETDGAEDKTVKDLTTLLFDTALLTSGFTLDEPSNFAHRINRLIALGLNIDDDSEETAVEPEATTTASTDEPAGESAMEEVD
# Chain of Nonstructural protein 1 (Q194T2 whole entry): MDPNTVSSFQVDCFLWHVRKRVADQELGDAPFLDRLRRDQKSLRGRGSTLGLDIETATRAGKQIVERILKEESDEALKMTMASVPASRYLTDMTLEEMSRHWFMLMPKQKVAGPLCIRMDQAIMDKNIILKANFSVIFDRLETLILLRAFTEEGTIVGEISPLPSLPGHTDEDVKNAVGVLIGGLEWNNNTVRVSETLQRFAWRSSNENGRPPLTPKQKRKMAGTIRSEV
# Chain of 26S proteasome non-ATPase regulatory subunit 14 (O00487 whole entry): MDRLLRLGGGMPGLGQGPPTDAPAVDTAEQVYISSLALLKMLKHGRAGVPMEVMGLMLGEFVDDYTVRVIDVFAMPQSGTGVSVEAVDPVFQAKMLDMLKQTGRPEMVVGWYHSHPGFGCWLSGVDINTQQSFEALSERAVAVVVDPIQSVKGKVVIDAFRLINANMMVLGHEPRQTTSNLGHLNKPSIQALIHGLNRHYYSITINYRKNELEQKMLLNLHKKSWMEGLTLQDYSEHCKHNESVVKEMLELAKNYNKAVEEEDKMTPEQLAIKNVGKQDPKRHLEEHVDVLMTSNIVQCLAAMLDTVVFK
# Chain of Nuclear receptor subfamily 0 group B member 1 (P51843 whole entry): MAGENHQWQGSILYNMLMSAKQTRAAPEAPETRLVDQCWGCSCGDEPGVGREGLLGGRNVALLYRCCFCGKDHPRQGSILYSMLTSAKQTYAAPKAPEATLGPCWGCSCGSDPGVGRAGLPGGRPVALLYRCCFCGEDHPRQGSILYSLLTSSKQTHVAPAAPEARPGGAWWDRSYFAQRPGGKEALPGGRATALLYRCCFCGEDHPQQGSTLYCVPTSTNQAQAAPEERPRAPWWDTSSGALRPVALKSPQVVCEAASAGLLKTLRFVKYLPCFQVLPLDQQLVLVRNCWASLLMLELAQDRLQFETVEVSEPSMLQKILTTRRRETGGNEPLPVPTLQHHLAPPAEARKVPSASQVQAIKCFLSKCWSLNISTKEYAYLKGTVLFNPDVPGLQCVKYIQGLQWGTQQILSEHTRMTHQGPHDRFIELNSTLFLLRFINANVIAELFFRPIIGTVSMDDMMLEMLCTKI
# Chain of Protein Wnt-3a (P27467 whole entry): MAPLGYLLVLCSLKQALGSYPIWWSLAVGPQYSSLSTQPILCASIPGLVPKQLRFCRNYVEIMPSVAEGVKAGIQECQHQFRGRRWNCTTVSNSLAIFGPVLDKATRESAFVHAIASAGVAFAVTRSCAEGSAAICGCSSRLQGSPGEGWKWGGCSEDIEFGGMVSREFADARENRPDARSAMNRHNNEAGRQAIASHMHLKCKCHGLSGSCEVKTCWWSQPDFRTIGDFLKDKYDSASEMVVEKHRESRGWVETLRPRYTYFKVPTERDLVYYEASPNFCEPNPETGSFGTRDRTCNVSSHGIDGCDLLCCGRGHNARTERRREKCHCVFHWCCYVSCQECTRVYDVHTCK
smiles,measurement,setting,value
Oc1ccnc(NCCc2ccccc2)n1,EC50,[1],> 29.9 µM (inactive)
same,IC50,[2],> 29.9 µM (inactive)
CCC(=O)NC(c1cccs1)c1cc([N+](=O)[O-])c2cccnc2c1O (centres undefined),IC50,[3],2.47 µM (active)
same,EC50,[4],0.185 µM (active)
same,EC50,[5],33.6 µM (active)
same,IC50,[6],> 100 µM (inactive)
same,EC50,[7],> 180 µM (inactive)
same,IC50,[8],5.91 µM (active)
same,EC50,[9],24 µM (active)
same,IC50,[10],6.66 µM (active)
same,IC50,[11],40.3 µM (active)
Cc1ncsc1C(=O)Nc1nc2c(s1)CC(C)CC2 (centres undefined),AC50,[12],> 52 µM (inactive)
COc1cc(/C=C2\CCCc3c2nc2ccccc2c3C(=O)O)cc(Cl)c1O,IC50,[13],2.96 µM (active)
same,IC50,[14],4.82 µM (active)
Cc1ccc(-c2cc(C(=O)N3CCCC3)no2)cc1,EC50,[15],9.94 µM (inconclusive)
same,EC50,[16],2.79 µM (active)
same,IC50,[17],> 67.5 µM (inactive)
same,IC50,[18],> 67.5 µM (inactive)
CCCCCCCN1C2=NCCCN2c2ccccc21,AC50,[19],46 µM (active)
same,IC50,[20],12.6 µM (active)
same,AC50,[21],11.8 µM (active)
CCOC(=O)C1CCN(c2ccc(-c3cccs3)nn2)CC1,AC50,[12],26 µM (active)
same,EC50,[22],0.391 µM (active)
same,EC50,[23],96.1 µM (active)
